Results on one compound are retold here after patent US7816393B2, “Isoindoline compounds and methods of their use” (Celgene Corporation, priority 2008, dated 2010).

One may read the melting point as the temperature of the solid-liquid transition.

For the compound `NC(=O)C(CCC(=O)O)N1Cc2c(N)cccc2C1=O` (stereo not shown) [Example 5.2, 4-(4-Amino-1-oxo-1,3-dihydro-isoindol-2-yl)-4-carbamoyl-butyric acid], the melting point was 334 to 336 °C.
